# Results taken from patent US20190298702A1, “COMPOSITIONS AND METHODS FOR TREATING PRURITUS” (priority 2018, published 2019).
# Structures can show the parent of a compound that is named as a salt. Where two headings read alike, the source gives them in different places.
# How the values were obtained:
# [1] = tested on: substance P-induced scratching; experiment: Mouse substance P-induced scratching model, subcutaneous SDE; type: in vivo; settings: for substance P-induced scratching bouts: SC, 75 mg/mL oily formulation at 10 mL/kg, 30-minute observation
# Method: The time-course and antipruritic effects of SDE via subcutaneous (SC) injection were studied in the mouse substance P-induced scratching model to evaluate the effect of SDE's antipruritic effect. In this study, SDE was dissolved in an oily formulation, with a concentration at 75 mg/mL.
# Substance P, the endogenous ligand for the neurokinin-1 (NK-1) receptor, is a significant mediator of pruritus. […] Intradermal injection of substance P elicits an itch sensation in human subjects, and an associated itch response in mice.
# (§1) Compared to the placebo control group, SDE (administered SC at 10 mL/kg) was associated with significant reduction of substance P-induced scratching behaviors at 4 hours (18.8±11.8 bouts) and 12 hours (24.5±4.1 bouts) post treatment. […] However, SC administration of SDE would cause high concentration of nalbuphine in the circulation and induce serious adverse effects.
# [2] = Adverse signs and mortality after SC administration of SDE; type: in vivo, mouse; settings: SC at 10 mL/kg
# Method: as §1
# [3] = Ex vivo skin drug permeation and penetration, MedFlux-HT diffusion cell system; type: in vitro ADME, human
# Method: The ten formulations listed in Table 7 were used to evaluate the penetration of drug into human skin using the MedFlux-HT™ diffusion cell system. In this study, human skins with about 500±50 μm thickness were fixed on the MedFlux-HT diffusion cell system. About 10 mg of test formulation was applied to the epidermal side of the human skin, and a continued flow of receiver fluid was place at the opposite side of the skin. Because SDE is rapidly converted into nalbuphine by the esterases in the biological environment, both nalbuphine and SDE concentration were measured to access the drug permeation status. The concentration of nalbuphine and SDE in receiver fluid indicated the amount of drug that had penetrated through the human skin.
# Tissue levels of SDE and nalbuphine in the dermis and epidermis, and the amount of SDE and nalbuphine in the receiver fluids over 24 hours were determined and are shown in FIG. 1A and FIG. 1B. SDE and nalbuphine were both detected in receiver fluid, dermis, and epidermis. The cumulative amounts of SDE and nalbuphine in receiver fluid recovered at 24 hours were 89-1978 ng/cm^2 and 169-978 ng/cm^2, respectively.
# These formulations were used to evaluate the penetration of drug into human skin using the MedFlux-HT™ diffusion cell system according to Example 8.
# [4] = type: physicochemical
# Method: Individual excipients were investigated to determine their compatibility with SDE (at 50° C. for 2 and 4 weeks) for potential use in a topical formulation.
# [5] = Whole blood concentration of nalbuphine after the scratching observation; type: in vivo; settings: ICR, mouse, subcutaneous, 30 mg/kg, SC at 0.5 hour, read-out: effective systemic concentration of nalbuphine (whole blood)
# Method: Immediately after the scratching observation of Example 11, whole blood was collected from each mouse via the vena cava, and the nalbuphine concentration in each sample was determined.
# Immediately after the scratching observation of Example 14, whole blood was collected from each mouse via the vena cava, and the nalbuphine concentration in each sample was determined.
# [6] = tested on: substance P-induced scratching; experiment: Mouse substance P-induced scratching model, topical application; type: in vivo; settings: 30 mg/kg, SC, 0.5 hour post treatment
# Method: Groups of 10 or 20 male ICR mice weighing 23±3 grams were used. One day before testing, hair was removed at the substance P injection sites. […] Substance P (250 nmol/site) was injected intradermally (ID) in a volume of 50 μL/site into the rostral portion of the back (the same region as test compound application). As reference, nalbuphine HCl was injected subcutaneously on the lower back region (different site as Substance P challenge). The scratching behavior was recorded for 30 minutes by visual observation immediately after substance P injection.
# The time-course and antipruritic effects of the Ointment formulations via topical application were investigated in the mouse substance P-induced scratching model according to Example 11. On the testing day, the tested formulations (TA-1, TA-2, TA-3, and TA-4) were applied topically on the rostral portion of the back (2×2 cm region) at 4 hours prior to substance P challenge. 15 male ICR mice were used for each group. As reference, nalbuphine HCl was injected subcutaneously on the lower back region (different site as Substance P challenge). The scratching behavior was recorded for 30 minutes by visual observation immediately after substance P injection.
# [7] = four ointment formulations of Table 13
structure (smiles),measurement,setting,value
"O=C(CCCCCCCCC(=O)Oc1ccc2c3c1O[C@H]1[C@@H](O)CC[C@@]4(O)[C@@H](C2)N(CC2CCC2)CC[C@]314)Oc1ccc2c3c1O[C@H]1[C@@H](O)CC[C@@]4(O)[C@@H](C2)N(CC2CCC2)CC[C@]314 [SDE, Sebacoyl Dinalbuphine Ester]",suppressive effect on scratching responses,"[1]; SC at 10 mL/kg, 24 hours",45%
same,attenuation of scratching responses,"[1]; SC at 10 mL/kg, 48 hours",loss of activity
same,substance P-induced scratching bouts,[1]; 4 hours post treatment,18.8±11.8 bouts
same,substance P-induced scratching bouts,[1]; 12 hours post treatment,24.5±4.1 bouts
same,adverse signs observed,[2],"signs of depression, tremor and hypothermia"
same,mortality rate,[2]; 24 hours,7.7%
same,mortality rate,[2]; 48 hours,35.7%
same,concentration of SDE in receiver fluid versus concentration of nalbuphine,[3]; [7],comparable
same,concentrations of SDE in dermis and epidermis versus concentrations of nalbuphine,[3]; [7],much greater
same,concentration of SDE in receiver fluid versus concentration of nalbuphine,[3]; ten formulations of Table 7,comparable
same,concentrations of SDE in dermis and epidermis versus concentrations of nalbuphine,[3]; ten formulations of Table 7,10 fold
same,SDE degradation,"[4]; combination of BHT with Transcutol P compared to Transcutol P alone, 50° C.",reduce the degree of SDE degradation
same,SDE purity (%),"[4]; in Castor oil, 50° C., 2 weeks",80.20%
same,SDE purity (%),"[4]; in Castor oil, 50° C., 4 weeks",75.71%
same,SDE purity (%),"[4]; in Castor oil, T = 0",100.00%
same,SDE purity (%),"[4]; in Diisopropyl adipate, 50° C., 2 weeks",99.60%
same,SDE purity (%),"[4]; in Diisopropyl adipate, 50° C., 4 weeks",99.49%
same,SDE purity (%),"[4]; in Diisopropyl adipate, T = 0",100.00%
same,SDE purity (%),"[4]; in Isopropyl myristate (IPM), 50° C., 2 weeks",99.51%
same,SDE purity (%),"[4]; in Isopropyl myristate (IPM), 50° C., 4 weeks",85.75%
same,SDE purity (%),"[4]; in Isopropyl myristate (IPM), T = 0",100.00%
same,SDE purity (%),"[4]; in Miglyol 810 (Caprylic/Capric triglyceride), 50° C., 2 weeks",99.66%
same,SDE purity (%),"[4]; in Miglyol 810 (Caprylic/Capric triglyceride), 50° C., 4 weeks",99.69%
same,SDE purity (%),"[4]; in Miglyol 810 (Caprylic/Capric triglyceride), T = 0",100.00%
same,SDE purity (%),"[4]; in PEG 400 (pH 4-5) + BHT, 50° C., 2 weeks",96.38%
same,SDE purity (%),"[4]; in PEG 400 (pH 4-5) + BHT, 50° C., 4 weeks",93.24%
same,SDE purity (%),"[4]; in PEG 400 (pH 4-5) + BHT, T = 0",98.31%
same,SDE purity (%),"[4]; in PEG 400 (pH 4-5), 50° C., 2 weeks",94.01%
same,SDE purity (%),"[4]; in PEG 400 (pH 4-5), 50° C., 4 weeks",96.97%
same,SDE purity (%),"[4]; in PEG 400 (pH 4-5), T = 0",100.00%
same,SDE purity (%),"[4]; in Super refined PEG 400 (pH 4-5), 50° C., 2 weeks",93.17%
same,SDE purity (%),"[4]; in Super refined PEG 400 (pH 4-5), 50° C., 4 weeks",92.23%
same,SDE purity (%),"[4]; in Super refined PEG 400 (pH 4-5), T = 0",100.00%
same,SDE purity (%),"[4]; in Transcutol P + BHT, 50° C., 2 weeks",14.65%
same,SDE purity (%),"[4]; in Transcutol P + BHT, 50° C., 4 weeks",4.21%
same,SDE purity (%),"[4]; in Transcutol P + BHT, T = 0",96.90%
same,SDE purity (%),"[4]; in Transcutol P, 50° C., 2 weeks",5.69%
same,SDE purity (%),"[4]; in Transcutol P, 50° C., 4 weeks",1.50%
same,SDE purity (%),"[4]; in Transcutol P, T = 0",94.31%
same,change of SDE purity,"[4]; in deionized water (at both pH 4 and 5) and Transcutol P, 50° C. for 2 and 4 weeks",Significant reductions
same,SDE purity (%),"[4]; in water (pH 4), 50° C., 2 weeks",28.91%
same,SDE purity (%),"[4]; in water (pH 4), 50° C., 4 weeks",14.47%
same,SDE purity (%),"[4]; in water (pH 4), T = 0",96.61%
same,SDE purity (%),"[4]; in water (pH 5), 50° C., 2 weeks",28.74%
same,SDE purity (%),"[4]; in water (pH 5), 50° C., 4 weeks",5.43%
same,SDE purity (%),"[4]; in water (pH 5), T = 0",96.83%
Oc1ccc2c3c1O[C@H]1[C@@H](O)CC[C@@]4(O)[C@@H](C2)N(CC2CCC2)CC[C@]314 [nalbuphine HCl],concentration at 0.5 h,[5],~0.207 µg/mL
same,substance P-evoked scratching behaviors,[6]; versus respective control (Example 11),significantly reduced
same,substance P-evoked scratching behaviors,[6]; versus respective control (Example 14),significantly reduced
